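Exposure lasted 48 hours, with cells grown in 96-well plates and compounds tested at five concentrations. GI50 is the concentration that inhibits growth by half. TGI marks complete inhibition of growth.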
How the values were obtained:
Experiment in all cases: NCI anticancer screen, dose series, 48 h
HL-60(TB) leukemia = system: HL-60(TB) leukemia
HOP-92 NSCLC = system: HOP-92 NSCLC
K-562 leukemia = system: K-562 leukemia
MALME-3M melanoma = system: MALME-3M melanoma
SF-295 CNS = system: SF-295 CNS
SF-539 CNS = system: SF-539 CNS
SN12C renal = system: SN12C renal
SNB-19 CNS = system: SNB-19 CNS
T-47D breast = system: T-47D breast
UACC-62 melanoma = system: UACC-62 melanoma

| Structure (SMILES) | GI50 (HL-60(TB) leukemia) [µM] | TGI (HL-60(TB) leukemia) [µM] | GI50 (HOP-92 NSCLC) [µM] | TGI (HOP-92 NSCLC) [µM] | GI50 (K-562 leukemia) [µM] | TGI (K-562 leukemia) [µM] | GI50 (MALME-3M melanoma) [µM] | TGI (MALME-3M melanoma) [µM] | GI50 (SF-295 CNS) [µM] | TGI (SF-295 CNS) [µM] | GI50 (SF-539 CNS) [µM] | TGI (SF-539 CNS) [µM] | GI50 (SN12C renal) [µM] | TGI (SN12C renal) [µM] | GI50 (SNB-19 CNS) [µM] | TGI (SNB-19 CNS) [µM] | GI50 (T-47D breast) [µM] | TGI (T-47D breast) [µM] | GI50 (UACC-62 melanoma) [µM] | TGI (UACC-62 melanoma) [µM] |
| --- | --- | --- | --- | --- | --- | --- | --- | --- | --- | --- | --- | --- | --- | --- | --- | --- | --- | --- | --- | --- |
| O=Nc1c(O)c2ccccc2c2ccccc12 | 2.47 | 7.97 | 2.32 | 4.57 | 0.505 | > 100 | 1.47 | 3.03 | 1.64 | 3.5 | 0.379 | 1.6 | 0.449 | 1.88 | 1.13 | 2.55 | 1.32 | 3.57 | 0.99 | 2.37 |
| CNCCCn1c2c(c3ccc(F)cc3c1=O)C(=O)c1cc(OC)cnc1-2 | 0.221 | 0.753 | 0.371 | 3.15 | 0.172 | 1.92 | 0.318 | 1.55 | 0.185 | 0.78 | 0.368 | 1.36 | 0.211 | 1.34 | 0.216 | 1.78 | 0.16 | 0.704 | 0.608 | 2.68 |
| Oc1c(CNCCNCc2cc(Cl)cc(Cc3ccccc3)c2O)cc(Cl)cc1Cc1ccccc1 | 0.43 | 9.84 | 2.68 | 23.9 | 0.391 | 27.2 | 0.6 | 7.6 | 0.448 | 4.1 | 0.314 | 3.93 | 0.483 | 19.4 | 0.701 | > 100 | 0.391 | 37.9 | 0.436 | 10.9 |
| CCN(Cc1cccc(F)c1F)c1ccc(CO)c(Cl)c1 | 7.25 | 41.2 | 0.19 | 8.23 | 0.683 | 29.3 | 16 | 34.2 | 0.284 | 25 | 15.5 | 30.2 | 13.4 | 30.2 | 17 | > 58.6 | 0.07 | 0.414 | 0.0842 | 0.519 |
| NC(CO)C(=O)NCC(=O)O (stereo not given) | – | > 100 | – | > 100 | – | > 100 | – | > 100 | – | > 100 | – | > 100 | – | > 100 | – | > 100 | – | > 100 | – | > 100 |
| CC(=O)NC1=C(Sc2ccc(Cl)cc2)C(=O)c2ccccc2C1=O | – | 1.63 | – | 5.67 | – | 5.41 | – | 8 | – | 20.9 | – | 5.85 | – | 16.2 | – | 28.6 | – | 4.95 | – | 13.3 |
| CSc1nc(N)c2c(n1)NC(c1ccccc1)C1CCc3ccccc3C1=N2 (stereo not given) | 4 | > 100 | 3.08 | > 100 | 4.12 | > 100 | > 100 | > 100 | 25.6 | > 100 | > 100 | > 100 | 30.9 | > 100 | > 100 | > 100 | 2.27 | 15.7 | 6.01 | > 100 |
| Clc1ccc(N2CCC(N3CCCC3)CC2)cc1-c1nc2ccccc2[nH]1 | 23.5 | 50.1 | 13.4 | 42.8 | 17 | 44.5 | 17.4 | 33.6 | 17.4 | 36.2 | 17 | 32.1 | 25 | > 73.7 | 33.7 | > 100 | 21.6 | 88.1 | 16.2 | 32.1 |
| Nc1cc2nc3ccccc3oc-2cc1=O | 3.19 | > 100 | > 45 | > 100 | 2.05 | > 26.9 | 1.67 | 3.63 | 1.44 | 3.79 | 2.45 | 6.75 | 1.46 | 2.9 | 5.44 | 16 | 14.9 | > 100 | 1.67 | 3.27 |
| CC1(C)CC(=O)c2c(ccc(C(=O)C[C@@H](N)CO)c2N)O1 | 4.03 | > 63.7 | 6.28 | > 69.3 | 0.531 | > 100 | 12.5 | > 76.9 | 1.29 | > 54.9 | 0.399 | 5.22 | 0.788 | > 100 | 0.749 | > 100 | 4.56 | > 67.6 | 0.333 | 3.61 |
| C#C/C=C/CC1OC(C(Br)CC)CC(Br)C2CC1O2 (stereo not given) | – | > 100 | – | 58.6 | – | > 100 | – | 25.7 | – | > 100 | – | > 100 | – | > 100 | – | > 100 | – | > 100 | – | > 100 |
| CNC(=O)c1cc2c(Oc3ccc(NC(=S)NC(=O)Cc4ccccc4)cc3F)ccnc2cc1OC | > 100 | > 100 | 1.67 | > 100 | 0.502 | > 100 | 8.85 | > 100 | 0.196 | > 100 | 0.549 | > 30.3 | 2.18 | > 100 | > 100 | > 100 | 2.8 | > 100 | 3.43 | > 100 |
| CN1CCN(c2ccc(C(=O)Nc3cccc(C#Cc4cccc5[nH]nc(N)c45)c3)cc2C(F)(F)F)CC1 | 0.866 | 3.08 | 1.02 | 4.07 | 0.0235 | 0.717 | 0.651 | 1.62 | 0.654 | 1.39 | 0.544 | 1.16 | 1.2 | 4.54 | 1.68 | 4.92 | 1.24 | 5.55 | 0.665 | 1.62 |
| CCCCCSC1C2C(=O)C(Br)=CC13CCNc1c(O)c4c5c(c13)=[N+]2CCC=5C=N4 (stereo not given) | 0.671 | 2.4 | 3.02 | 6.2 | 2.62 | 12.2 | 0.332 | 1.37 | 3.89 | 9.61 | 2.78 | 5.08 | 0.414 | 1.12 | 2.69 | 4.97 | 1.74 | 6.03 | 0.952 | 3.75 |
